Earlier results as cited in patent publication US12414956B2, “Method for smoking cessation” (CALISTA CAPITAL, LLC, priority 2017, dated 2025).
Where two headings read alike, the source gives them in different places.

Tests used:
[1] = after six months, clinical trials
[2] = mean, capsules, adult subjects, plasma

AUC ([2]; single 300 mg oral dose) | Cmax ([2]; single 300 mg oral dose) | tmax ([2]; single 300 mg oral dose) | AUC ([2]; single 600 mg oral dose) | Cmax ([2]; single 600 mg oral dose) | tmax ([2]; single 600 mg oral dose) | Structure (SMILES) | success rate [1]
– | – | – | – | – | – | c1cnc2cc3c(cc2n1)[C@@H]1CNC[C@H]3C1 [CHANTIX, varenicline] | 14%
7050 ng·h/mL | 1600 ng/mL | 2.9 h | 11100 ng·h/mL | 2870 ng/mL | 3.0 h | C=CC1=C(C(=O)O)N2C(=O)[C@@H](NC(=O)/C(=N\O)c3csc(N)n3)[C@H]2SC1 [Cefdinir, cefdinir] | –
